Results from patent publication US20020022059A1, “Water treatment process” (priority 1996, published 2002).

Legend:
[1] = tested on: algae bloom; test: Application of algicide-flocculant treatment against an algae bloom in a South Texas water plant; conditions: clarifier
[2] = pH 7, or more alkaline water

SMILES: O.O.O.O.O.O=S(=O)([O-])[O-].[Cu+2] [blue vitriol crystals, cupric sulfate pentahydrate]
- outcome of algae bloom [1]: had battled an algae bloom
- dissolution in water [2]: do not dissolve very well
